Experimental data reported in patent publication US6703212B1, “Methods and kits for diagnosing Alzheimer's disease from a blood sample” (priority 1997, dated 2004).

Tested on: PKC
Experiment: Fluorescence properties of fim-1 with liposomes, purified PKC and erythrocytes
Format: biochemical
Conditions: fim-1 500 nM, Ex 485 nm
Method: Liposomes prepared from lipidic extracts of brain and a commercial preparation of purified a PKC are used, then erythrocytes are added.
This preparation is incubated for 20 minutes at ambient temperature, in the presence of fim-1 (500 nM) in a PBS buffer (150 mM NaCl, 10 mM NaHPO4, 5 mM D-glucose, 500 μm CaCl2, pH 7.4.
After washing, centrifugation and resuspension in PBS 1/150, the fluorescence emission spectrum is recorded between […], with an excitation wavelength of 485 nm.
The spectrum obtained is standardized relative to the fluorescence intensity measured with the probe alone, then broken down into the 3 elementary gaussian distributions represented in FIG. 1. An emission maximum is noted at 518, 535 and 586 nm respectively. The interactions between fim-1 and the membrane lipids as well as the PKC is expressed by a slight shift of the spectrum between […] for the lipids and an increase in fluorescence between 510 and 530 nm, and beyond 570 nm for the PKC.

CCCCCCCCCCCCCC(=O)O[C@@H]1[C@@H](C)[C@@]2(O)[C@@H](C=C(CO)C[C@]3(O)C(=O)C(C)=C[C@@H]23)[C@@H]2C(C)(C)[C@]12OC(C)=O [phorbol ester, phorbol myristate acetate]
increase of quantal yield of fim-1 fluorescence (factor) (in the presence of activator): 5000

CN[C@@H]1C[C@H]2O[C@@](C)([C@@H]1OC)n1c3ccccc3c3c4c(c5c6ccccc6n2c5c31)C(=O)NC4 [staurosporine]
effect on fluorescence intensity of fim-1 (addition of inhibitor): inhibition in the fluorescence intensity
